Results on nine compounds are retold here after patent US9328138B2 (priority 2011, dated 2016).

Where two headings read alike, the source gives them in different places.

The conditions of series [1]: amide bond, 18-membered ring.
The target in series [2] is T1, HCV genotype 1b (BK) NS3 modified enzyme with a R155K mutation (Hepatitis C virus genotype 1b, UniProt P26663, R1181K).
T1 construct: HCV genotype 1b (BK) NS3 modified enzyme
The series can be described thus: HCV NS3 protease time-resolved fluorescence (TRF) assay, genotype 1b R155K. The settings on record: Ki 1b R155K, genotype 1b (BK) NS3 R155K; single value. In kind it is biochemical. An outline of the steps: (§1)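 Steps: compound plus NS3/NS4A enzyme for 10 minutes; add peptide substrate to 25 nM; let cleavage proceed 6 hours at room temperature; read product fluorescence (340 nm excitation, 615 nm emission, delayed 400 μs). Enzyme levels gave signal/background 5-20.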

The target of series [3] is HCV NS3 protease genotype 3a (3A-1) (Hepatitis C virus genotype 3a, UniProt Q81258). Nature of the series: HCV NS3 protease time-resolved fluorescence (TRF) assay, genotype 3a. In kind it is biochemical. The settings on record: Ki 3a. In short, it runs like this:
as §1

With `CCOC(=O)[C@@]12C[C@H]1/C=C\CCCCC[C@@H]1NC(=O)O[C@@H]3C[C@H]3CCC/C=C/c3c(nc4ccccc4c3OCCN3CCCCC3)O[C@@H]3C[C@@H](C(=O)N2)N(C3)C1=O`, under “from CCOC(=O)[C@@]12C[C@H]1/C=C\CCCCC[C@H](NC(=O)O[C@@H]1C[C@H]1CCC/C=C/B1OC(C)(C)C(C)(C)O1)C(=O)N1C[C@H](Oc3nc4ccccc4c(OCCN4CCCCC4)c3Br)C[C@H]1C(=O)N2, cc_pd bond, Pd(OAc)2/cataCXium A, Cs2CO3, dioxane, 36.6 mM, 100.0 °C, 1.0 h”, the ring closure, yield of all isomers was 64.1%. Turning to `CCOC(=O)[C@@]12C[C@H]1C=CCCCCC[C@H](NC(=O)OC(C)(C)C)C(=O)N1C[C@@H](OS(=O)(=O)c3ccc(Br)cc3)C[C@H]1C(=O)N2C(=O)OC(C)(C)C`, the ring closure, yield of all isomers (from C=CCCCCC[C@H](NC(=O)OC(C)(C)C)C(=O)N1C[C@@H](OS(=O)(=O)c2ccc(Br)cc2)C[C@H]1C(=O)N(C(=O)OC(C)(C)C)[C@]1(C(=O)OCC)C[C@H]1C=C, rcm bond, Zhan catalyst 1B, 1,2-dichloroethane, 10.0 mM, 75.0 °C, 2.0 h) was 84.8%. For the compound `CCOc1c2c(nc3ccccc13)O[C@@H]1C[C@@H](C(=O)OC)N(C1)C(=O)[C@H](C1CCCC1)NC(=O)O[C@@H]1CCC[C@H]1CCC=CC2`, the ring closure, yield of all isomers (from C=CCC[C@@H]1CCC[C@H]1OC(=O)N[C@H](C(=O)N1C[C@H](Oc2nc3ccccc3c(OCC)c2CC=C)C[C@H]1C(=O)OC)C1CCCC1, rcm bond, Zhan catalyst 1B, 1,2-dichloroethane, 6.79 mM, 25.0 °C, 4.0 h) was 79.2%. `COC(=O)[C@@H]1C[C@@H]2CN1C(=O)[C@H](C(C)(C)C)NC(=O)O[C@H]1C[C@@H]1CCCCCc1c(nc3ccncc3c1OC1CCN(C)CC1)O2`: the ring closure, isolated yield in series [1] (HATU, 2 steps) came to 44.7%. For the setting “from COC(=O)[C@@H]1C[C@@H](Oc2nc3ccncc3c(OC3CCN(C)CC3)c2CCCCC[C@@H]2C[C@H]2OC(=O)N[C@H](C(=O)OC(C)(C)C)C(C)(C)C)CN1C(=O)OC(C)(C)C, amide bond, HATU, DMF, 51.5 mM, 25.0 °C, 1.5 h, 2 steps”, this compound showed a ring closure, yield of all isomers of 44.7%. Consider `COC(=O)[C@@H]1C[C@@H]2CN1C(=O)[C@H](C1(C)CCCCC1)NC(=O)O[C@@H]1C[C@H]1CCCC#Cc1c(nc3ccccc3c1OCc1ccccc1)O2`, for which the ring closure, isolated yield in series [1] (from COC(=O)[C@@H]1C[C@@H](Oc2nc3ccccc3c(OCc3ccccc3)c2C#CCCC[C@@H]2C[C@H]2OC(=O)N[C@H](C(=O)O)C2(C)CCCCC2)CN1, HATU/DIEA, DMF, 50.0 mM) was 58.8%. The ring closure, yield of all isomers (from COC(=O)[C@@H]1C[C@@H](Oc2nc3ccccc3c(OCc3ccccc3)c2C#CCCC[C@@H]2C[C@H]2OC(=O)N[C@H](C(=O)O)C2(C)CCCCC2)CN1, amide bond, HATU, DMF, 50.0 mM, 25.0 °C, 3.0 h) worked out at 58.8%. `COC(=O)[C@@H]1C[C@@H]2CN1C(=O)[C@H](C1Cc3ccccc3C1)NC(=O)O[C@@H]1C[C@H]1CCCC#Cc1c(nc3ccccc3c1OCc1ccccc1)O2` returned a ring closure, isolated yield in series [1] (from COC(=O)[C@@H]1C[C@@H](Oc2nc3ccccc3c(OCc3ccccc3)c2C#CCCC[C@@H]2C[C@H]2OC(=O)N[C@H](C(=O)O)C2Cc3ccccc3C2)CN1, HATU/DIEA, DMF, 50.0 mM) of 80%. Further, the ring closure, yield of all isomers (from COC(=O)[C@@H]1C[C@@H](Oc2nc3ccccc3c(OCc3ccccc3)c2C#CCCC[C@@H]2C[C@H]2OC(=O)N[C@H](C(=O)O)C2Cc3ccccc3C2)CN1, amide bond, HATU, DMF, 50.0 mM, 25.0 °C, 2.0 h) turned out to be 80%. For `CN1CCN(CCCOc2c3c(nc4ccccc24)O[C@@H]2C[C@H]4C(=O)N[C@]5(C(=O)NS(=O)(=O)C6(C)CC6)C[C@H]5/C=C\CCCCC[C@H](NC(=O)O[C@@H]5C[C@H]5CCC/C=C/3)C(=O)N4C2)CC1` [Example 304, (1aR,5S,11Z,12aS,13aR,16S,19R,27E, 31aR)-N-[(1-methylcyclopropyl)sulfonyl]-26-[3-(4-methylpiperazin-1-yl)propoxy]-3,15,33-trioxo-1,1a,3,4,5,6,7,8,9,10,12a,13,15,16,18, 19,29,30,31,31a-icosahydro-5,17:16,19-dimethanodicyclopropa[12,13:28,29] [1,20,3,14,17] dioxatriazacyclononacosino[21,22-b]quinoline-13a(14H)-carboxamide], the inhibition constant (Ki) (as a rule, a measure of affinity in units of concentration, obtained from inhibition or displacement) in series [2] was determined as 0.078 nM; in series [3], 1.2 nM. For `COc1c2c(nc3ccccc13)O[C@@H]1C[C@H]3C(=O)N[C@]4(C(=O)NS(=O)(=O)C5(C)CC5)C[C@H]4/C=C\CCCCC[C@H](NC(=O)O[C@@H]4C[C@H]4CCCCC2)C(=O)N3C1` [Example 305, (1aR,5S,11Z,12aS,13aR,16S,19R,31aR)-26-methoxy-N-[(1-methylcyclopropyl)sulfonyl]-3,15,33-trioxo-1,1a,3,4,5,6,7,8,9,10,12a,13,15,16,18,19,27,28,29,30,31,31a-docosahydro-5,17:16,19-dimethanodicyclopropa[12,13:28,29][1,20,3,14,17]dioxatriazacyclononacosino[21,22-b]quinoline-13a(14H)-carboxamide] the same measures were 0.066 nM and 2 nM. In the case of `CC1(S(=O)(=O)NC(=O)[C@@]23C[C@H]2/C=C\CCCCC[C@@H]2NC(=O)O[C@@H]4C[C@H]4CCCCCc4c(nc5ccccc5c4OCCN4CCCC4)O[C@@H]4C[C@@H](C(=O)N3)N(C4)C2=O)CC1` [Example 306, (1aR,5S,11Z,12aS,13aR,16S,19R,31aR)—N-[(1-methylcyclopropyl)sulfonyl]-3,15,33-trioxo-26-[2-(pyrrolidin-1-yl)ethoxy]-1,1a,3,4,5,6,7,8,9,10,12a,13,15,16,18,19,27,28,29,30,31,31a-docosahydro-5,17:16,19-dimethanodicyclopropa[12,13:28,29][1,20,3,14,17]dioxatriazacyclononacosino[21,22-b]quinoline-13a(14H)-carboxamide], the Ki in series [2] came to 0.083 nM; in series [3] it was 0.72 nM.
